From BindingDB's records for doi:10.1021/jm800797n (University of Tartu, 2009)
pIC50, pKd: −log10 of the molar value.

Assays:
[1] = molecular target: cAMP-dependent protein kinase catalytic subunit alpha (Bos taurus) (UniProt P00517); assay: The assay is based on the kinase-bound labeled fluorescent probe can be displaced by competitive inhibitors, which can be registered by measurement of the resulting change in fluorescence properties of the solution. The binding curves were fitted using GraphPad Prism version 4.03 using sigmoidal dose-respons; settings: pH 7.5
[2] = molecular target: cAMP-dependent protein kinase catalytic subunit alpha (Bos taurus) (UniProt P00517); assay: The IC50 values of the inhibitors corresponding to the concentration of the inhibitor decreasing the enzyme activity 50% were measured using fluorescent-labeled substrate. The phosphorylation reaction was initiated by the addition of ATP. At fixed time points, the reaction was analyzed by normal phase TLC. The visualization and quantification
[3] = molecular target: RAC-gamma serine/threonine-protein kinase (Homo sapiens, UniProt Q9Y243); assay: Fluorometric TLC Kinase Assay
RAC-gamma serine/threonine-protein kinase, sequence (Q9Y243 whole entry): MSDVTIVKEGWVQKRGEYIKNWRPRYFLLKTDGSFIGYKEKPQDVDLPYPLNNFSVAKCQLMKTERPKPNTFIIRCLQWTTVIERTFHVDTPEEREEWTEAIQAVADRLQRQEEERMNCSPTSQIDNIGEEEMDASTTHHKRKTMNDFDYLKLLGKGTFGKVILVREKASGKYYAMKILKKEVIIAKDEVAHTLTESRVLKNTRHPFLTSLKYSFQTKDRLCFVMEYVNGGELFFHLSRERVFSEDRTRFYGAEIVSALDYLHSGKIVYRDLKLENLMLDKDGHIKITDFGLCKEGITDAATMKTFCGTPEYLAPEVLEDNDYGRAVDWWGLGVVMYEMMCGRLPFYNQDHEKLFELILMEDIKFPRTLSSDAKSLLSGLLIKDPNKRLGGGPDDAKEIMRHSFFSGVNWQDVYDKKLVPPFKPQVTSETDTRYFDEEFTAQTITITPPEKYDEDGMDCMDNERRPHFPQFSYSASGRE

SMILES | pIC50 [2] | pIC50 [3] | pKd [1]
O=S(=O)(NCCNC/C=C/c1ccc(Br)cc1)c1cccc2cnccc12 | – | – | 7.64
N=C(N)NCCC[C@@H](NC(=O)[C@@H](CCCNC(=N)N)NC(=O)[C@@H](CCCNC(=N)N)NC(=O)[C@@H](CCCNC(=N)N)NC(=O)[C@@H](CCCNC(=N)N)NC(=O)[C@@H](CCCNC(=N)N)NC(=O)CCCCCNC(=O)[C@H]1O[C@@H](n2cnc3c(N)ncnc32)[C@H](O)[C@@H]1O)C(N)=O | 8.08 | – | –
NC(=O)[C@H](Cc1ccc(C(=O)c2ccccc2)cc1)NC(=O)CCCCCNC(=O)[C@H]1O[C@@H](n2cnc3c(N)ncnc32)[C@H](O)[C@@H]1O [6-{[(2S,3S,4R,5R)-5-(6-amino-9H-purin-9-yl)-3,4-dihydroxyoxolan-2-yl]formamido}-N-[(1S)-2-(4-benzoylphenyl)-1-carbamoylethyl]hexanamide] | – | – | < 4.00
N=C(N)NCCC[C@@H](NC(=O)[C@@H](CCCNC(=N)N)NC(=O)[C@@H](CCCNC(=N)N)NC(=O)[C@@H](CCCNC(=N)N)NC(=O)[C@@H](CCCNC(=N)N)NC(=O)[C@@H](CCCNC(=N)N)NC(=O)CCCCCNC(=O)[C@@H](CCCCN)NC(=O)CCCCCNC(=O)[C@H]1O[C@@H](n2cnc3c(N)ncnc32)[C@H](O)[C@@H]1O)C(N)=O [(2R)-6-amino-2-(6-{[(2S,3S,4R,5R)-5-(6-amino-9H-purin-9-yl)-3,4-dihydroxyoxolan-2-yl]formamido}hexanamido)-N-(5-{[(1R)-4-carbamimidamido-1-{[(1R)-4-carbamimidamido-1-{[(1R)-4-carbamimidamido-1-{[(1R)-4-carbamimidamido-1-{[(1R)-4-carbamimidamido-1-{[(1R)-4-carbamimidamido-1-carbamoylbutyl]carbamoyl}butyl]carbamoyl}butyl]carbamoyl}butyl]carbamoyl}butyl]carbamoyl}butyl]carbamoyl}pentyl)hexanamide] | – | – | > 9.30

The next lines start with results.

pIC50 [2] | pIC50 [3] | SMILES | pKd [1]
– | 5.69 | C[C@@H](NC(=O)CCCCCNC(=O)[C@@H]1C[C@@H](O)[C@H](n2cnc3c(N)ncnc32)C1)C(=O)NCCCCCC(=O)N[C@H](CCCNC(=N)N)C(=O)N[C@H](CCCNC(=N)N)C(N)=O [6-{[(1S,3R,4R)-3-(6-amino-9H-purin-9-yl)-4-hydroxycyclopentyl]formamido}-N-[(1R)-1-[(5-{[(1R)-4-carbamimidamido-1-{[(1R)-4-carbamimidamido-1-carbamoylbutyl]carbamoyl}butyl]carbamoyl}pentyl)carbamoyl]ethyl]hexanamide] | –
8.62 | – | NC(=O)[C@@H](CCCN=C(N)N)NC(=O)[C@@H](CCCN=C(N)N)NC(=O)[C@@H](CCCN=C(N)N)NC(=O)[C@@H](CCCN=C(N)N)NC(=O)[C@@H](CCCN=C(N)N)NC(=O)[C@@H](CCCN=C(N)N)NC(=O)CCCCCNC(=O)[C@@H]1C[C@@H](O)[C@H](n2cnc3c(N)ncnc32)C1 [6-{[(1S,3R,4R)-3-(6-amino-9H-purin-9-yl)-4-hydroxycyclopentyl]formamido}-N-[(1R)-4-carbamimidamido-1-{[(1R)-4-carbamimidamido-1-{[(1R)-4-carbamimidamido-1-{[(1R)-4-carbamimidamido-1-{[(1R)-4-carbamimidamido-1-{[(1R)-4-carbamimidamido-1-carbamoylbutyl]carbamoyl}butyl]carbamoyl}butyl]carbamoyl}butyl]carbamoyl}butyl]carbamoyl}butyl]hexanamide] | –
8.28 | 7.51 | NC(=O)[C@@H](CCCN=C(N)N)NC(=O)[C@@H](CCCN=C(N)N)NC(=O)[C@@H](CCCN=C(N)N)NC(=O)[C@@H](CCCN=C(N)N)NC(=O)[C@@H](CCCN=C(N)N)NC(=O)[C@@H](CCCN=C(N)N)NC(=O)CCCCCNCCNS(=O)(=O)c1cccc2cnccc12 [N-[(1R)-4-carbamimidamido-1-{[(1R)-4-carbamimidamido-1-{[(1R)-4-carbamimidamido-1-{[(1R)-4-carbamimidamido-1-{[(1R)-4-carbamimidamido-1-{[(1R)-4-carbamimidamido-1-carbamoylbutyl]carbamoyl}butyl]carbamoyl}butyl]carbamoyl}butyl]carbamoyl}butyl]carbamoyl}butyl]-6-{[2-(isoquinoline-5-sulfonamido)ethyl]amino}hexanamide] | –
